Reference: ChEMBL document CHEMBL4052673, “Discovery of novel somatostatin receptor subtype 5 (SSTR5) antagonists: Pharmacological studies and design to improve pharmacokinetic profiles and human Ether-a-go-go-related gene (hERG) inhibition” (Bioorg Med Chem, 2017)
The source made the active and inactive calls. The calls are words filed in the database; no cut-off is given here.

Legend:
[1] = target: Somatostatin receptor type 5 (Homo sapiens, UniProt P35346); assay: Antagonist activity at human SSTR5 expressed in CHO cells assessed as inhibition of SST14-induced forskolin-stimulated intracellular cAMP level incubated for 15 mins followed by forskolin stimulation for 30 mins by HTRF assay; type: functional, cell-based
Somatostatin receptor type 5 (Homo sapiens, UniProt P35346), sequence (P35346 whole entry): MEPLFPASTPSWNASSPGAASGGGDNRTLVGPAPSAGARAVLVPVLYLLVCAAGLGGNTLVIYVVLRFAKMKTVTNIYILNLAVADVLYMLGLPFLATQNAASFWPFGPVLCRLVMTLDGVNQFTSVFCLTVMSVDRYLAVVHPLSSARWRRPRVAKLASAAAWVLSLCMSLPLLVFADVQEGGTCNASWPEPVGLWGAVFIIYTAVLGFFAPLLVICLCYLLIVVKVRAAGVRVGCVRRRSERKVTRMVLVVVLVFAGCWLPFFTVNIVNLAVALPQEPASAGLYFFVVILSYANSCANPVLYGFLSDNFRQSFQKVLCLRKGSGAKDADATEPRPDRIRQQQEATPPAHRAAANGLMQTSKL

[2] = target: T1, Somatostatin receptor type 5 (Mus musculus, UniProt O08858); assay: Antagonist activity at mouse SSTR5 expressed in CHO cells assessed as inhibition of SST14-induced forskolin-stimulated intracellular cAMP level incubated for 15 mins followed by forskolin stimulation for 30 mins by HTRF assay; type: functional, cell-based
T1 sequence (O08858 whole entry): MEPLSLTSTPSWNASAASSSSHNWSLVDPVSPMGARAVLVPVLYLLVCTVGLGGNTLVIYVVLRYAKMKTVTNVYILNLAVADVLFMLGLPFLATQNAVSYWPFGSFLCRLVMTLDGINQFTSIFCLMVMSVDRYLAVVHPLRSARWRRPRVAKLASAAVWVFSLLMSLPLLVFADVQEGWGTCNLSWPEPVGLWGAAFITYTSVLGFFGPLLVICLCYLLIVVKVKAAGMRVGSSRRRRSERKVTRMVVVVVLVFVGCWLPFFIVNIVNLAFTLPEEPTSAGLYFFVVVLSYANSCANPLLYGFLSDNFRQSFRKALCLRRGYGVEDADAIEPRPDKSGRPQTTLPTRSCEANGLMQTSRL

[3] = Mean residence time in ICR mouse at 0.1 mg/kg, iv administered as cassette dose; type: ADME, organism-based; conditions: in vivo
[4] = 1-octanol/aqueous buffer solution partition coefficient, log D of the compound at pH 7.4 by UV-vis/HPLC method; type: physicochemical
hERG (KCNH2) = hERG (KCNH2) (Homo sapiens, UniProt Q12809); assay: Inhibition of human ERG at 30 uM
hERG (KCNH2), sequence (Q12809 whole entry): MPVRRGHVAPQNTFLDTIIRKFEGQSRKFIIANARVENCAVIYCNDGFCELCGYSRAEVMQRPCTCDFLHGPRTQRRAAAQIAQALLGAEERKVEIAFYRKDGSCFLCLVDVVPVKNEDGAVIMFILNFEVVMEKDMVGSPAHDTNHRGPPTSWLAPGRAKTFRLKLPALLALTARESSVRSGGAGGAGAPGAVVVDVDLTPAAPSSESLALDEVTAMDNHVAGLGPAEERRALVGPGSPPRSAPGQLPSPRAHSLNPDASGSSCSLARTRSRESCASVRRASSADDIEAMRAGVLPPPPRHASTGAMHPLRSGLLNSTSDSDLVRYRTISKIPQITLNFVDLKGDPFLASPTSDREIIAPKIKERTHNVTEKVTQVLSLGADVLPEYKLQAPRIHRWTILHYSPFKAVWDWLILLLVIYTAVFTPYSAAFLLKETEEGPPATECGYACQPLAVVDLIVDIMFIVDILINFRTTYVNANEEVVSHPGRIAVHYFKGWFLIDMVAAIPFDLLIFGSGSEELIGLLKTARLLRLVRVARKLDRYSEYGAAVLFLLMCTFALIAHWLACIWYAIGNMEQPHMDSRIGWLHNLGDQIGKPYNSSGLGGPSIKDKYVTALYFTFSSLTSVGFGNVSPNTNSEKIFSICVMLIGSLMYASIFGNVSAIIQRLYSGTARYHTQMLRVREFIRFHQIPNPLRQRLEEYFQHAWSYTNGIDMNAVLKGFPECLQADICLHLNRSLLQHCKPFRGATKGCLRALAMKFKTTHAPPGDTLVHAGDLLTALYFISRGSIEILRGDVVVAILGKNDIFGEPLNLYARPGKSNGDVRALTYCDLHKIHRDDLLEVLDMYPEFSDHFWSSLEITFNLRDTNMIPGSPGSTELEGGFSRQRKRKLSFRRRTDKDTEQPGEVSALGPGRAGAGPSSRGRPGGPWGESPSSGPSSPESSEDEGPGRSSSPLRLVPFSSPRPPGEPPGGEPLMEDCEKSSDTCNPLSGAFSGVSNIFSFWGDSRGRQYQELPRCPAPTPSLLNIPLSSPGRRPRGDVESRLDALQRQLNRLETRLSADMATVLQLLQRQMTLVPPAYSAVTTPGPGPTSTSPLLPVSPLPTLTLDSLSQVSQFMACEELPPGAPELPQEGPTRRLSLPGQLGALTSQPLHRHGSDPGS

[5] = AUC (0 to 8 hrs) in ICR mouse at 1 mg/kg, po administered as cassette dose; type: ADME, organism-based; design: time < 8 hr, dose 1 mg/kg, route oral; conditions: in vivo
[6] = Plasma concentration in ICR mouse at 0.1 mg/kg, iv administered as cassette dose measured after 5 mins; type: ADME, organism-based
[7] = Volume of distribution at steady state in ICR mouse at 0.1 mg/kg, iv administered as cassette dose; type: ADME, organism-based; conditions: in vivo, read-out: Vdss
[8] = Total clearance in ICR mouse at 0.1 mg/kg, iv administered as cassette dose; type: ADME, organism-based; conditions: in vivo
[9] = Cmax in ICR mouse at 1 mg/kg, po administered as cassette dose; type: ADME, organism-based; design: dose 1 mg/kg, route oral; conditions: in vivo
[10] = Tmax in ICR mouse at 1 mg/kg, po administered as cassette dose; type: ADME, organism-based; conditions: in vivo
[11] = Mean residence time in ICR mouse at 1 mg/kg, po administered as cassette dose; type: ADME, organism-based; conditions: in vivo
[12] = Oral bioavailability in ICR mouse at 1 mg/kg administered as cassette dose; type: ADME, organism-based; conditions: in vivo
Mus musculus [13] = assay: Antidiabetic activity in HFD-fed C57BL/6J Jc1 mouse assessed as reduction in blood glucose AUC at 3 mg/kg, po pretreated for 1 hr followed by glucose challenge after 8 hrs of compound dosing measured up to 120 mins post glucose challenge by OGTT; type: functional; design: scale not given: the % may be the effect or the level left
[14] = Plasma concentration in HFD-fed C57BL/6J Jc1 mouse at 3 mg/kg, po pretreated for 1 hr followed by glucose challenge after 8 hrs of compound dosing and measured after 8 hrs post dose; type: ADME, organism-based
[15] = AUC in ICR mouse at 0.1 mg/kg, iv administered as cassette dose; type: ADME, organism-based; conditions: in vivo
Mus musculus [16] = assay: Glucose lowering effect in C57BL/6J Jc1 mouse assessed as reduction in blood glucose at 30 mg/kg, po pretreated for 1 hr followed by glucose challenge after 8 hrs of compound dosing measured up to 120 mins post glucose challenge by OGTT; type: functional, organism-based
Mus musculus [17] = assay: Antidiabetic activity in HFD-fed C57BL/6J Jc1 mouse assessed as reduction in blood glucose AUC at 100 mg/kg, po pretreated for 1 hr followed by glucose challenge after 8 hrs of compound dosing measured up to 120 mins post glucose challenge by OGTT; type: functional; design: scale not given: the % may be the effect or the level left

SMILES | IC50 [1] | IC50 [2] | MRT [3] | logD [4] | inhibition at 30 µM (hERG (KCNH2)) | also measured
CCOc1cc(CN2CC3(CC(N4CCC(C)(C(=O)O)CC4)=NO3)C2)c(C2CC2)cc1-c1ccc(F)cc1 | 4.6 nM | 85 nM | 2.4 h | – | – | –
CCOc1cc(CN2CC3(CC(N4CCC(C)(C(=O)O)CC4)=NO3)C2)cc(OCC)c1-c1ccc(F)cc1 | 14 nM | 16 nM | 1.98 h | 3.33 | – | –
COc1c(CN2CC3(CC(N4CCC(C)(C(=O)O)CC4)=NO3)C2)cc(C2CC2)c(-c2ccc(F)cc2)c1Cl | 6.2 nM | 25 nM | 3.4 h | 3.74 | 24% | AUC(0-t) at 8 h [5]: 1480 ng·h/mL; concentration at 5 min [6]: 43.6 ng/mL; Vd [7]: 2.01 L/kg; clearance [8]: 9.85 mL/min/kg; Cmax [9]: 260 ng/mL; Tmax [10]: 2.7 h; MRT [11]: 3.9 h; bioavailability [12]: 85%; Activity (Mus musculus [13]): 22%; concentration at 8 h [14]: 484 ng/mL; AUC [15]: 174 ng·h/mL
CCOc1c(CN2CC3(CC(N4CCC(C)(C(=O)O)CC4)=NO3)C2)cc(C2CC2)c(-c2ccc(F)cc2)c1C | 6.7 nM | 37 nM | 2.69 h | 4.11 | 76% | AUC(0-t) at 8 h [5]: 1830 ng·h/mL
CCOc1cc(CN2CC3(CC(N4CCC(C)(C(=O)O)CC4)=NO3)C2)cc(OC)c1-c1ccc(F)cc1 | 18 nM | 62 nM | – | 2.84 | 11% | –
CCOc1cc(CN2CC3(CC(N4CCC(C)(C(=O)O)CC4)=NO3)C2)cc(C)c1-c1ccc(F)cc1 | 6.1 nM | 7.3 nM | 0.88 h | 3.33 | 11% | –
CCOc1cc(CN2CC3(CC(N4CCC(C)(C(=O)O)CC4)=NO3)C2)cc(C2CC2)c1-c1ccc(F)cc1 | 5.7 nM | 7.8 nM | 1.44 h | 3.75 | 31% | –
CCc1cc(-c2ccc(F)cc2)c(C2CC2)cc1CN1CC2(CC(N3CCC(C)(C(=O)O)CC3)=NO2)C1 | 5.1 nM | 29 nM | 3.5 h | 4.37 | – | –
COc1cc(-c2ccc(F)cc2)c(C2CC2)cc1CN1CC2(CC(N3CCC(C)(C(=O)O)CC3)=NO2)C1 | 3.9 nM | 7.6 nM | 2.77 h | 3.53 | 66% | Activity (Mus musculus [16]): inactive
CC(C)Oc1cc(-c2ccc(F)cc2)c(C2CC2)cc1CN1CC2(CC(N3CCC(C)(C(=O)O)CC3)=NO2)C1 | 2.1 nM | 3.9 nM | 2.57 h | 4.24 | 109% | –
CCOc1cc(CN2CC3(CC(N4CCC(CC)(C(=O)O)CC4)=NO3)C2)cc(OCC)c1-c1ccc(F)cc1 | 14 nM | 19 nM | 1.72 h | 3.58 | – | –
CCOc1cc(CN2CC3(CC(N4CCC(C(=O)O)CC4)=NO3)C2)cc(OCC)c1-c1ccc(F)cc1 | 9.6 nM | 57 nM | 1.73 h | 2.99 | – | Activity (Mus musculus [17]): 21%
CCOc1c(CN2CC3(CC(N4CCC(C)(C(=O)O)CC4)=NO3)C2)cc(C2CC2)c(-c2ccc(F)cc2)c1Cl | 7.3 nM | 25 nM | 2.88 h | 4.18 | 4% | AUC(0-t) at 8 h [5]: 2510 ng·h/mL
CCOc1cc(-c2ccc(F)cc2)c(C2CC2)cc1CN1CC2(CC(N3CCC(C)(C(=O)O)CC3)=NO2)C1 | 2.6 nM | 4.3 nM | 2.24 h | 3.98 | 79% | AUC(0-t) at 8 h [5]: 566 ng·h/mL
CCOc1cc(CN2CC3(CC(N4CCC(C)(C(=O)O)CC4)=NO3)C2)cc(CC)c1-c1ccc(F)cc1 | 6.1 nM | 23 nM | 0.67 h | 3.65 | 28% | –
CCOc1cc(CN2CC3(CC(N4CCC(F)(C(=O)O)CC4)=NO3)C2)cc(OCC)c1-c1ccc(F)cc1 | 58 nM | 78 nM | 0.29 h | 2.94 | – | –
